From the supplement of paper PMC10307832

What was measured:
Test in all cases: relative viability (nuclei count vs DMSO), 5 days (fraction); higher = more cells survive
AZ505 + Navitoclax = compound: C1CCC(CC1)N(CCNCCC2=C3C(=C(C=C2)O)NC(=O)CO3)C(=O)CCNCCC4=CC(=C(C=C4)Cl)Cl [AZ505] + CC1(C)CCC(c2ccc(Cl)cc2)=C(CN2CCN(c3ccc(C(=O)NS(=O)(=O)c4ccc(N[C@H](CCN5CCOCC5)CSc5ccccc5)c(S(=O)(=O)C(F)(F)F)c4)cc3)CC2)C1 [Navitoclax] (partner 0.5 µM)
In short: (§1)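 Lung cancer cell lines in 1536-well plates got either a single drug or a fixed anchor-drug dose together with five library-drug doses (not always all listed) in √10 steps, by pin tool, on the day after seeding. Nuclei were counted after 5 days, and relative viability is the treated-to-vehicle ratio of nuclei counts. Values are medians of duplicate plates.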

AZ505 + Foretinib = compound: C1CCC(CC1)N(CCNCCC2=C3C(=C(C=C2)O)NC(=O)CO3)C(=O)CCNCCC4=CC(=C(C=C4)Cl)Cl [AZ505] + COc1cc2c(Oc3ccc(NC(=O)C4(C(=O)Nc5ccc(F)cc5)CC4)cc3F)ccnc2cc1OCCCN1CCOCC1 [Foretinib] (partner 0.25 µM)
In short: as §1

Dactolisib = compound: Cn1c(=O)n(-c2ccc(C(C)(C)C#N)cc2)c2c3cc(-c4cnc5ccccc5c4)ccc3ncc21 [Dactolisib]
In short: (§2)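 Lung cancer cell lines in 1536-well plates were kept overnight at 37 °C, then pinned with five library-drug doses (not always all listed) spaced by √10 on vehicle-anchored plates. After 5 days without medium change, cells were fixed, permeabilised and Hoechst-stained in one step, imaged at 4×, and nuclei were counted with MetaXpress. Viability is treated-well nuclei divided by vehicle-well nuclei, taken as the median over plates. Plates passed only with control CV below 25% and at least one doubling.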

AZ505 = compound: C1CCC(CC1)N(CCNCCC2=C3C(=C(C=C2)O)NC(=O)CO3)C(=O)CCNCCC4=CC(=C(C=C4)Cl)Cl [AZ505]
In short: as §2

Cell Line | relative viability (AZ505 + Navitoclax; first compound 0.08 µM) | relative viability (AZ505 + Navitoclax; first compound 0.253 µM) | relative viability (AZ505 + Navitoclax; first compound 0.8 µM) | relative viability (AZ505 + Navitoclax; first compound 2.53 µM) | relative viability (AZ505 + Navitoclax; first compound 8 µM) | relative viability (AZ505 + Foretinib; first compound 0.08 µM) | relative viability (AZ505 + Foretinib; first compound 0.253 µM) | relative viability (AZ505 + Foretinib; first compound 0.8 µM) | relative viability (AZ505 + Foretinib; first compound 2.53 µM) | relative viability (AZ505 + Foretinib; first compound 8 µM) | relative viability (Dactolisib; 0.002 µM) | relative viability (Dactolisib; 0.006325 µM) | relative viability (Dactolisib; 0.02 µM) | relative viability (Dactolisib; 0.06325 µM) | relative viability (Dactolisib; 0.2 µM) | relative viability (AZ505; 0.08 µM) | relative viability (AZ505; 0.253 µM) | relative viability (AZ505; 0.8 µM) | relative viability (AZ505; 2.53 µM) | relative viability (AZ505; 8 µM)
NCI-H2405 | 0.449 | 0.483 | 0.621 | 0.524 | 0.696 | 0.755 | 0.776 | 0.746 | 0.767 | 0.746 | 1.01 | 0.993 | 0.97 | 0.607 | 0.447 | 0.769 | 0.707 | 0.784 | 0.892 | 0.82
NCI-H1944 | 1.03 | 1.03 | 1.03 | 0.907 | 1.02 | 0.875 | 0.903 | 0.938 | 0.806 | 0.761 | 1.12 | 0.973 | 0.917 | 0.387 | 0.402 | 0.949 | 0.989 | 1.06 | 0.861 | 1.02
EPLC-272H | 1.07 | 0.967 | 1.08 | 0.934 | 1.06 | – | 0.704 | 0.635 | 0.569 | 0.698 | 1.01 | 0.766 | 0.76 | 0.569 | 0.403 | 0.817 | 0.812 | 0.755 | 0.849 | 0.92
EBC-1 | 0.353 | 0.442 | 0.405 | 0.435 | 0.431 | 0.0937 | 0.0894 | 0.0949 | 0.0895 | 0.121 | 1.05 | 0.883 | 0.724 | 0.236 | 0.244 | 0.967 | 0.929 | 1.03 | 1.01 | 0.924
NCI-H1915 | 0.749 | 0.781 | 0.733 | 0.783 | 0.763 | 1.06 | 1.11 | 1 | 0.977 | 1.1 | 1.02 | 1.03 | 1.02 | 0.657 | 0.579 | 0.954 | 1.06 | 0.945 | 0.942 | 0.949
NCI-H596 | 0.862 | 0.806 | 0.597 | 0.803 | 0.87 | 0.746 | 0.897 | 0.805 | 0.897 | 0.731 | 1.09 | 0.91 | 0.886 | 0.558 | 0.409 | 0.888 | 0.784 | 0.972 | 0.955 | 0.957
NCI-H322M | 1.18 | 1.1 | 1.16 | 1.1 | 1.28 | 0.889 | 1 | 0.952 | 0.946 | 1.1 | 1.04 | 0.931 | 0.734 | 0.702 | 0.579 | 0.906 | 0.824 | 0.954 | 0.826 | 1.02
NCI-H1299 | 1.02 | 0.991 | 0.974 | 1.02 | 1 | 1.01 | 1.03 | 0.987 | 1.1 | 1.1 | 1 | 1.05 | 1.02 | 0.769 | 0.885 | 0.981 | 0.968 | 0.969 | 0.948 | 1
NCI-H2228 | 0.889 | 0.978 | 0.692 | 0.716 | 0.612 | 0.644 | 0.799 | 0.809 | 0.823 | 0.665 | 1.13 | 0.812 | 0.612 | 0.38 | 0.197 | 0.897 | 0.859 | 0.821 | 1.07 | 0.885
IA-LM | 0.622 | 0.943 | 0.703 | 0.779 | 0.872 | 0.921 | 1.21 | 1.07 | 1.12 | 1.42 | 1 | 0.837 | 0.701 | 0.273 | 0.129 | 0.931 | 0.914 | 0.898 | 0.953 | 1.13
NCI-H647 | 1.02 | 1.22 | 1.14 | 0.97 | 1.32 | 1.22 | 1.37 | 0.963 | 1.19 | 1.12 | 1.05 | 0.824 | 0.691 | 0.254 | 0.208 | 0.943 | 1.01 | 0.996 | 0.895 | 1.02
SK-MES-1 | 1.13 | 1.19 | 1.29 | 1.14 | 1.31 | 0.765 | 0.774 | 0.824 | 0.782 | 0.738 | 1.1 | 0.983 | 0.914 | 0.542 | 0.339 | 0.92 | 0.953 | 0.909 | 0.943 | 0.935
NCI-H2170 | 0.541 | 0.665 | 0.531 | 0.666 | 0.651 | 1.05 | 1.07 | 0.994 | 1.03 | 0.934 | 1.02 | 0.971 | 0.96 | 0.648 | 0.447 | 0.953 | 1.01 | 0.932 | 0.998 | 0.976
NCI-H2085 | 1.08 | 1.12 | 1.04 | 1.06 | 1.2 | 0.698 | 0.887 | 0.915 | 0.821 | 1.08 | 1.02 | 0.986 | 0.96 | 0.553 | 0.387 | 0.872 | 0.953 | 0.894 | 0.971 | 1.05
NCI-H727 | 0.501 | 0.461 | 0.471 | 0.428 | 0.483 | 0.998 | 0.861 | 0.856 | – | 0.993 | 0.839 | 1.02 | 0.9 | 0.487 | 0.414 | 0.836 | 0.879 | 0.864 | 0.654 | 1.11
